ChEMBL document CHEMBL1153978, “8-[2-(4-Aryl-1-piperazinyl)ethyl]-2H-1,4-benzoxazin-3(4H)-ones: dual-acting 5-HT1 receptor antagonists and serotonin reuptake inhibitors--part II” (Bioorg Med Chem Lett, 2009)

Key:
Liver microsomes = experiment: Intrinsic clearance in human liver microsomes; assay type: ADME, Microsome
[1] = Volume of distribution at steady state in rat at 0.5 mg/kg, iv and 1 mg/kg, po; assay type: ADME, organism-based; conditions: in vivo, read-out: Vdss
[2] = Clearance in rat blood at 0.5 mg/kg, iv and 1 mg/kg, po; assay type: ADME, organism-based; conditions: whole blood
[3] = Oral bioavailability in rat 1 mg/kg; assay type: ADME, organism-based; conditions: in vivo
[4] = Ratio of drug level in rat brain to plasma at 0.5 mg/kg, iv and 1 mg/kg, po; assay type: ADME, organism-based
[5] = Half life in rat at 0.5 mg/kg, iv and 1 mg/kg, po; assay type: ADME, organism-based; conditions: in vivo

With Cc1ccc2c(N3CCN(CCc4ccc5c(c4)N(C)C(=O)CO5)CC3)cccc2n1 the CL (Liver microsomes) was 1.1 mL/min/g and the Vd [1] was 2.7 L/kg.
Work on Cc1ccc2c(N3CCN(CCc4cccc5c4OCC(=O)N5C)CC3)cc(F)cc2n1 yielded a CL (Liver microsomes) of 3.2 mL/min/g, a Vd [1] of 2.1 L/kg and a clearance [2] of 21 mL/min/kg. The bioavailability [3] was 41%, the Kp [4] was 1.1 and the half-life [5] was 1.4 h.
In the case of Cc1ccc2c(N3CCN(CCCc4cccc5c4OCC(=O)N5C)CC3)cccc2n1, the CL (Liver microsomes) is reported as 2.1 mL/min/g, the Vd [1] is reported as 5.2 L/kg and the clearance [2] is reported as 55 mL/min/kg. It also gave a Kp [4] of 2.9 and a half-life [5] of 1.5 h.
Work on Cc1ccc2c(N3CCN(CCc4cccc5c4OCC(=O)N5C)[C@@H](C)C3)cccc2n1 yielded a CL (Liver microsomes) of 3.5 mL/min/g, a Vd [1] of 1.9 L/kg and a clearance [2] of 44 mL/min/kg. For the same molecule, the bioavailability [3] was 31%, the Kp [4] was 1.9 and the half-life [5] was 0.8 h.
In the case of Cc1ccc2c(N3CCN(CCc4ccc5c(c4)NC(=O)CO5)CC3)cccc2n1, the CL (Liver microsomes) is reported as under 0.5 mL/min/g and the Vd [1] is reported as 2 L/kg.
In the case of Cc1ccc2c(N3CCN(CCc4cccc5c4OCC(=O)N5)CC3)cccc2n1, the CL (Liver microsomes) is reported as 1 mL/min/g, the Vd [1] is reported as 3.4 L/kg and the clearance [2] is reported as 8 mL/min/kg. The bioavailability [3] was 63% and the half-life [5] was 5.2 h.
Molecule Cc1ccc2c(N3CCN(CCc4cccc5c4OCC(=O)N5C)CC3)cccc2n1 has a CL (Liver microsomes) of 2.4 mL/min/g, a Vd [1] of 1.7 L/kg and a clearance [2] of 29 mL/min/kg. It also gave a bioavailability [3] of 26% and a half-life [5] of 1 h.
